Assay results taken from ChEMBL document CHEMBL1201861, “Genomics of Drug Sensitity in Cancer screening data, Wellcome Trust Sanger Institute”.

How the values were obtained:
Assay in all cases: cells
[1] = system: TE-6; format: functional, cell-based, Homo sapiens; details: Homo sapiens, TE-6;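 note: growth inhibition of TE-6 cells, read out with a cell viability assay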
Description: SANGER: Inhibition of human TE-6 cell growth in a cell viability assay.

[2] = system: COLO-320-HSR; format: functional, cell-based; details: Homo sapiens;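 note: growth inhibition of COLO-320-HSR cells, determined with a cell viability assay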
Description: SANGER: Inhibition of human COLO-320-HSR cell growth in a cell viability assay.

[3] = system: HuO-3N1; format: functional, cell-based, Homo sapiens; details: Homo sapiens, HuO-3N1;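 note: cell viability readout used to measure how strongly compounds suppress proliferation of human HuO-3N1 cells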
Description: SANGER: Inhibition of human HuO-3N1 cell growth in a cell viability assay.

[4] = system: ES7; format: functional, cell-based, Homo sapiens; details: Homo sapiens, ES7;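 note: growth inhibition of cultured human ES7 cells, read out as cell viability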
Description: SANGER: Inhibition of human ES7 cell growth in a cell viability assay.

[5] = system: HCC1937; format: functional, cell-based, Homo sapiens; details: Homo sapiens, HCC1937;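 note: growth inhibition measured with a cell viability read-out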
Description: SANGER: Inhibition of human HCC1937 cell growth in a cell viability assay.

[6] = system: EW-1; format: functional, cell-based, Homo sapiens; details: Homo sapiens, EW-1;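 note: growth inhibition of the human EW-1 cell line, read out by a cell viability assay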
Description: SANGER: Inhibition of human EW-1 cell growth in a cell viability assay.

[7] = system: SW48; format: functional, cell-based, Homo sapiens; details: Homo sapiens, SW48;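 note: growth inhibition of SW48 cells, read out with a cell viability assay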
Description: SANGER: Inhibition of human SW48 cell growth in a cell viability assay.

[8] = system: MKN-7; format: functional, cell-based, Homo sapiens; details: Homo sapiens, MKN-7;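 note: growth inhibition of MKN-7 cells, read out with a cell viability assay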
Description: SANGER: Inhibition of human MKN7 cell growth in a cell viability assay.

[9] = system: 769-P; format: functional, cell-based, Homo sapiens; details: Homo sapiens, 769-P
Description: SANGER: Inhibition of human 769-P cell growth in a cell viability assay.

[10] = system: MDA-MB-157; format: functional, cell-based, Homo sapiens; details: Homo sapiens, MDA-MB-157
Description: SANGER: Inhibition of human MDA-MB-157 cell growth in a cell viability assay.

[11] = system: EFO-21; format: functional, cell-based, Homo sapiens; details: Homo sapiens, EFO-21;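 note: growth inhibition of EFO-21 cells measured with a viability assay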
Description: SANGER: Inhibition of human EFO-21 cell growth in a cell viability assay.

[12] = system: EW-13; format: functional, cell-based; details: Homo sapiens;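 note: growth inhibition of EW-13 cells, read out with a cell viability assay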
Description: SANGER: Inhibition of human EW-13 cell growth in a cell viability assay.

[13] = system: HCC70; format: functional, cell-based, Homo sapiens; details: Homo sapiens, HCC70;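 note: cell viability assay measuring how strongly the compound suppresses proliferation of HCC70 cells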
Description: SANGER: Inhibition of human HCC70 cell growth in a cell viability assay.

[14] = system: TYK-nu; format: functional, cell-based, Homo sapiens; details: Homo sapiens, TYK-nu;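 note: growth inhibition of human TYK-nu cells, read out by a cell viability assay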
Description: SANGER: Inhibition of human TYK-nu cell growth in a cell viability assay.

[15] = system: SW982; format: functional, cell-based; details: Homo sapiens;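 note: growth inhibition of SW982 cells, read out with a cell viability assay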
Description: SANGER: Inhibition of human SW982 cell growth in a cell viability assay.

[16] = system: HCC1806; format: functional, cell-based, Homo sapiens; details: Homo sapiens, HCC1806;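 note: growth inhibition of the cancer cell line, determined with a cell viability assay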
Description: SANGER: Inhibition of human HCC1806 cell growth in a cell viability assay.

[17] = system: NTERA-2-cl-D1; format: functional, cell-based, Homo sapiens; details: Homo sapiens, NTERA-2-cl-D1;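 note: inhibition of cell growth, measured with a cell viability assay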
Description: SANGER: Inhibition of human NTERA-S-cl-D1 cell growth in a cell viability assay.

[18] = system: CAKI-1; format: functional, cell-based, Homo sapiens; details: Homo sapiens, CAKI-1;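 note: growth inhibition of CAKI-1 cells, measured by a cell viability assay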
Description: SANGER: Inhibition of human CAKI-1 cell growth in a cell viability assay.

[19] = system: HD-MY-Z; format: functional, cell-based, Homo sapiens; details: Homo sapiens, HD-MY-Z;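 note: growth inhibition of HD-MY-Z cells, read out with a cell viability assay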
Description: SANGER: Inhibition of human HD-MY-Z cell growth in a cell viability assay.

[20] = system: RO82-W-1; format: functional, cell-based, Homo sapiens; details: Homo sapiens, RO82-W-1;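 note: growth inhibition of human RO82-W-1 cells, measured with a cell viability assay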
Description: SANGER: Inhibition of human RO82-W-1 cell growth in a cell viability assay.

[21] = system: HOP-62; format: functional, cell-based, Homo sapiens; details: Homo sapiens, HOP-62;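 note: cell growth inhibition determined with a viability assay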
Description: SANGER: Inhibition of human HOP-62 cell growth in a cell viability assay.

[22] = system: MDA-MB-231; format: functional, cell-based, Homo sapiens; details: Homo sapiens, MDA-MB-231
Description: SANGER: Inhibition of human MDA-MB-231 cell growth in a cell viability assay.

[23] = system: NCI-H1155; format: functional, cell-based; details: Homo sapiens;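 note: cell growth inhibition measured by a viability assay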
Description: SANGER: Inhibition of human NCI-H1155 cell growth in a cell viability assay.

[24] = system: NCI-H28; format: functional, cell-based, Homo sapiens; details: Homo sapiens, NCI-H28;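 note: growth inhibition of human NCI-H28 cells, read out as cell viability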
Description: SANGER: Inhibition of human NCI-H28 cell growth in a cell viability assay.

[25] = system: KU812 cell line; format: functional, cell-based; details: Homo sapiens;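 note: growth inhibition of KU812 cells, read out with a cell viability assay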
Description: SANGER: Inhibition of human KU812 cell growth in a cell viability assay.

[26] = system: MOLT-4; format: functional, cell-based; details: Homo sapiens;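 note: growth inhibition of MOLT-4 cells, determined with a cell viability readout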
Description: SANGER: Inhibition of human MOLT-4 cell growth in a cell viability assay.

[27] = system: YAPC; format: functional, cell-based, Homo sapiens; details: Homo sapiens, YAPC;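 note: growth inhibition of YAPC cells, measured with a cell viability assay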
Description: SANGER: Inhibition of human YAPC cell growth in a cell viability assay.

[28] = system: ES8; format: functional, cell-based, Homo sapiens; details: Homo sapiens, ES8;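 note: growth inhibition of human ES8 cells, read out with a cell viability assay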
Description: SANGER: Inhibition of human ES8 cell growth in a cell viability assay.

[29] = system: PANC-03-27; format: functional, cell-based, Homo sapiens; details: Homo sapiens, PANC-03-27
Description: SANGER: Inhibition of human PANC-03-27 cell growth in a cell viability assay.

[30] = system: LoVo; format: functional, cell-based; details: Homo sapiens;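 note: growth inhibition of human LoVo cells, read out with a cell viability assay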
Description: SANGER: Inhibition of human LoVo cell growth in a cell viability assay.

[31] = system: COLO-680N; format: functional, cell-based, Homo sapiens; details: Homo sapiens, COLO-680N;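 note: cell viability assay used to measure inhibition of COLO-680N cell growth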
Description: SANGER: Inhibition of human COLO-680N cell growth in a cell viability assay.

[32] = system: COLO-792; format: functional, cell-based, Homo sapiens; details: Homo sapiens, COLO-792
Description: SANGER: Inhibition of human COLO-792 cell growth in a cell viability assay.

[33] = system: COLO-668; format: functional, cell-based, Homo sapiens; details: Homo sapiens, COLO-668
Description: SANGER: Inhibition of human COLO-668 cell growth in a cell viability assay.

[34] = system: D-542MG; format: functional, cell-based, Homo sapiens; details: Homo sapiens, D-542MG
Description: SANGER: Inhibition of human D-542MG cell growth in a cell viability assay.

[35] = system: RMG-I; format: functional, cell-based, Homo sapiens; details: Homo sapiens, RMG-I;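 note: growth inhibition of human RMG-I cells, read out with a cell viability assay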
Description: SANGER: Inhibition of human RMG-I cell growth in a cell viability assay.

[36] = system: Daoy; format: functional, cell-based, Homo sapiens; details: Homo sapiens, Daoy;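 note: daoy cell growth inhibition, read out as cell viability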
Description: SANGER: Inhibition of human Daoy cell growth in a cell viability assay.

[37] = system: BT-474; format: functional, cell-based, Homo sapiens; details: Homo sapiens, BT-474
Description: SANGER: Inhibition of human BT-474 cell growth in a cell viability assay.

[38] = system: NCI-H1355; format: functional, cell-based, Homo sapiens; details: Homo sapiens, NCI-H1355;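 note: growth inhibition of human NCI-H1355 cells, read out by a cell viability assay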
Description: SANGER: Inhibition of human NCI-H1355 cell growth in a cell viability assay.

[39] = system: COLO-824; format: functional, cell-based, Homo sapiens; details: Homo sapiens, COLO-824
Description: SANGER: Inhibition of human COLO-824 cell growth in a cell viability assay.

[40] = system: A2058; format: functional, cell-based; details: Homo sapiens;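 note: reduction of A2058 cell growth, read out with a viability assay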
Description: SANGER: Inhibition of human A2058 cell growth in a cell viability assay.

[41] = system: NB14; format: functional, cell-based; details: Homo sapiens;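 note: growth inhibition of NB14 cells measured with a cell viability assay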
Description: SANGER: Inhibition of human NB14 cell growth in a cell viability assay.

[42] = system: NCI-H2030; format: functional, cell-based, Homo sapiens; details: Homo sapiens, NCI-H2030;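 note: growth inhibition of human NCI-H2030 cells, read out by a cell viability assay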
Description: SANGER: Inhibition of human NCI-H2030 cell growth in a cell viability assay.

[43] = system: MG-63; format: functional, cell-based, Homo sapiens; details: Homo sapiens, MG-63;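 note: growth inhibition of human MG-63 cells, read out with a cell viability assay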
Description: SANGER: Inhibition of human MG-63 cell growth in a cell viability assay.

[44] = system: SW1088; format: functional, cell-based, Homo sapiens; details: Homo sapiens, SW1088;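 note: growth inhibition of human SW1088 cells, read out by a cell viability assay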
Description: SANGER: Inhibition of human SW1088 cell growth in a cell viability assay.

[45] = system: KYSE-270; format: functional, cell-based, Homo sapiens; details: Homo sapiens, KYSE-270;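 note: cell growth inhibition measured with a viability assay in the human KYSE-270 line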
Description: SANGER: Inhibition of human KYSE-270 cell growth in a cell viability assay.

[46] = system: SNU-C2B; format: functional, cell-based, Homo sapiens; details: Homo sapiens, SNU-C2B;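 note: cell viability readout used to measure compound-driven suppression of SNU-C2B cell proliferation, IC50 marking half-maximal growth inhibition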
Description: SANGER: Inhibition of human SNU-C2B cell growth in a cell viability assay.

[47] = system: C2BBe1; format: functional, cell-based, Homo sapiens; details: Homo sapiens, C2BBe1;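 note: growth inhibition of C2BBe1 cells, read out through a viability assay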
Description: SANGER: Inhibition of human C2BBe1 cell growth in a cell viability assay.

[48] = system: ABC-1; format: functional, cell-based, Homo sapiens; details: Homo sapiens, ABC-1;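 note: growth inhibition of human ABC-1 cells, read out by a cell viability assay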
Description: SANGER: Inhibition of human ABC-1 cell growth in a cell viability assay.

[49] = system: D-263MG; format: functional, cell-based, Homo sapiens; details: Homo sapiens, D-263MG
Description: SANGER: Inhibition of human D-263MG cell growth in a cell viability assay.

[50] = system: HGC-27; format: functional, cell-based, Homo sapiens; details: Homo sapiens, HGC-27;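 note: growth inhibition of human HGC-27 cells, read out in a cell viability assay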
Description: SANGER: Inhibition of human HGC-27 cell growth in a cell viability assay.

[51] = system: J82; format: functional, cell-based; details: Homo sapiens;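 note: growth inhibition of J82 cells, read out with a cell viability assay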
Description: SANGER: Inhibition of human J82 cell growth in a cell viability assay.

Measured: IC50

CCOc1nc(NC(=O)Cc2cc(OC)ccc2OC)cc(N)c1C#N
> 10 µM: all assays above

CC(=O)O[C@@H]1[C@@H](OC(C)=O)[C@@H](O)[C@H](Oc2c(-c3ccc(O)cc3)oc3cc(O)cc(O)c3c2=O)O[C@H]1C
2.78 µM: [3]
> 10 µM: all other assays above

CN(C)C/C=C/C(=O)Nc1cc2c(Nc3ccc(F)c(Cl)c3)ncnc2cc1O[C@H]1CCOC1 [AFATINIB]
0.402 µM: [1]
0.155 µM: [25]
0.0499 µM: [37]
> 0.5 µM: all other assays above

O=C(NOCC1CC1)c1ccc(F)c(F)c1Nc1ccc(I)cc1Cl [CI-1040]
6.95 µM: [7]
5.88 µM: [49]
3.35 µM: [29]
1.46 µM: [30]
9.29 µM: [5]
5.4 µM: [23]
2.56 µM: [12]
7.67 µM: [41]
0.81 µM: [47]
4.29 µM: [22]
1.03 µM: [14]
7.59 µM: [38]
2.84 µM: [32]
2.19 µM: [40]
0.453 µM: [25]
1.57 µM: [19]
8.57 µM: [18]
6.92 µM: [44]
2.02 µM: [13]
> 10 µM: all other assays above
